Measurements: the kinase profiling compilation of Christmann-Franck et al. (2016)

Assays:
Assay in all cases: KINOMEscan competition binding
Conditions in all cases: compound 10.0 µM
PIM1 (human) = PIM1 (human) (UniProt P11309)
TAOK1 (human) = TAOK1 (human) (UniProt Q7L7X3)
FES (human) = FES (human) (UniProt P07332)
CDC42BPG (human) = CDC42BPG (human) (UniProt Q6DT37)
STK25 (human) = STK25 (human) (UniProt O00506)
ULK3 (human) = ULK3 (human) (UniProt Q6PHR2)
CIT (human) = CIT (human) (UniProt O14578)
RPS6KA6 KD2 (human) = RPS6KA6 KD2 (human) (UniProt Q9UK32)
FLT4 (human) = FLT4 (human) (UniProt P35916)
CDK3 (human) = CDK3 (human) (UniProt Q00526)
RPS6KA3 KD1 (human) = RPS6KA3 KD1 (human) (UniProt P51812)
CAMK4 (human) = CAMK4 (human) (UniProt Q16566)
ULK2 (human) = ULK2 (human) (UniProt Q8IYT8)
NEK6 (human) = NEK6 (human) (UniProt Q9HC98)
FGFR4 (human) = FGFR4 (human) (UniProt P22455)
RIPK2 (human) = RIPK2 (human) (UniProt O43353)
CAMK2B (human) = CAMK2B (human) (UniProt Q13554)
CDKL2 (human) = CDKL2 (human) (UniProt Q92772)
PRKACB (human) = PRKACB (human) (UniProt P22694)
TSSK1B (human) = TSSK1B (human) (UniProt Q9BXA7)
RIPK4 (human) = RIPK4 (human) (UniProt P57078)
CLK2 (human) = CLK2 (human) (UniProt P49760)
STK10 (human) = STK10 (human) (UniProt O94804)
SIK1 (human) = SIK1 (human) (UniProt P57059)
GAK (human) = GAK (human) (UniProt O14976)
LATS2 (human) = LATS2 (human) (UniProt Q9NRM7)
EPHB1 (human) = EPHB1 (human) (UniProt P54762)
BMPR1A (human) = BMPR1A (human) (UniProt P36894)
CDC2L2 (human) = CDC2L2 (human) (UniProt Q9UQ88)
MAPKAPK2 (human) = MAPKAPK2 (human) (UniProt P49137)
CLK3 (human) = CLK3 (human) (UniProt P49761)
TNNI3K (human) = TNNI3K (human) (UniProt Q59H18)
ADCK3 (human) = ADCK3 (human) (UniProt Q8NI60)
NEK1 (human) = NEK1 (human) (UniProt Q96PY6)
TNIK (human) = TNIK (human) (UniProt Q9UKE5)
MAP4K2 (human) = MAP4K2 (human) (UniProt Q12851)
NEK2 (human) = NEK2 (human) (UniProt P51955)
CHEK1 (human) = CHEK1 (human) (UniProt O14757)
CDK5 (human) = CDK5 (human) (UniProt Q00535)
CSNK1E (human) = CSNK1E (human) (UniProt P49674)

Chain of ULK3 (human) (Q6PHR2 whole entry, looked up): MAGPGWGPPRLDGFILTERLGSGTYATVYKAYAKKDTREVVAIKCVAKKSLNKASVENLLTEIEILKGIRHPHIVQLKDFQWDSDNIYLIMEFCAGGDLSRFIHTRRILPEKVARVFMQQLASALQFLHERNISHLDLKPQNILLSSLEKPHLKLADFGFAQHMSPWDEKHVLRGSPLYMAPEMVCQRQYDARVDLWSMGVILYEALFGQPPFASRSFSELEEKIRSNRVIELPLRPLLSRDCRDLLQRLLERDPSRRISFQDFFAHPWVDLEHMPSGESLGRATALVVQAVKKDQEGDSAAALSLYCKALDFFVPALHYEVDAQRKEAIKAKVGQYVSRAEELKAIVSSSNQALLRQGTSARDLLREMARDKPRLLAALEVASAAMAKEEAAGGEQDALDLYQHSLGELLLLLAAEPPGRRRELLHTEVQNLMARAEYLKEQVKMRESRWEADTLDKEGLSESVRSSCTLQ
Chain of GAK (human) (O14976 whole entry, looked up): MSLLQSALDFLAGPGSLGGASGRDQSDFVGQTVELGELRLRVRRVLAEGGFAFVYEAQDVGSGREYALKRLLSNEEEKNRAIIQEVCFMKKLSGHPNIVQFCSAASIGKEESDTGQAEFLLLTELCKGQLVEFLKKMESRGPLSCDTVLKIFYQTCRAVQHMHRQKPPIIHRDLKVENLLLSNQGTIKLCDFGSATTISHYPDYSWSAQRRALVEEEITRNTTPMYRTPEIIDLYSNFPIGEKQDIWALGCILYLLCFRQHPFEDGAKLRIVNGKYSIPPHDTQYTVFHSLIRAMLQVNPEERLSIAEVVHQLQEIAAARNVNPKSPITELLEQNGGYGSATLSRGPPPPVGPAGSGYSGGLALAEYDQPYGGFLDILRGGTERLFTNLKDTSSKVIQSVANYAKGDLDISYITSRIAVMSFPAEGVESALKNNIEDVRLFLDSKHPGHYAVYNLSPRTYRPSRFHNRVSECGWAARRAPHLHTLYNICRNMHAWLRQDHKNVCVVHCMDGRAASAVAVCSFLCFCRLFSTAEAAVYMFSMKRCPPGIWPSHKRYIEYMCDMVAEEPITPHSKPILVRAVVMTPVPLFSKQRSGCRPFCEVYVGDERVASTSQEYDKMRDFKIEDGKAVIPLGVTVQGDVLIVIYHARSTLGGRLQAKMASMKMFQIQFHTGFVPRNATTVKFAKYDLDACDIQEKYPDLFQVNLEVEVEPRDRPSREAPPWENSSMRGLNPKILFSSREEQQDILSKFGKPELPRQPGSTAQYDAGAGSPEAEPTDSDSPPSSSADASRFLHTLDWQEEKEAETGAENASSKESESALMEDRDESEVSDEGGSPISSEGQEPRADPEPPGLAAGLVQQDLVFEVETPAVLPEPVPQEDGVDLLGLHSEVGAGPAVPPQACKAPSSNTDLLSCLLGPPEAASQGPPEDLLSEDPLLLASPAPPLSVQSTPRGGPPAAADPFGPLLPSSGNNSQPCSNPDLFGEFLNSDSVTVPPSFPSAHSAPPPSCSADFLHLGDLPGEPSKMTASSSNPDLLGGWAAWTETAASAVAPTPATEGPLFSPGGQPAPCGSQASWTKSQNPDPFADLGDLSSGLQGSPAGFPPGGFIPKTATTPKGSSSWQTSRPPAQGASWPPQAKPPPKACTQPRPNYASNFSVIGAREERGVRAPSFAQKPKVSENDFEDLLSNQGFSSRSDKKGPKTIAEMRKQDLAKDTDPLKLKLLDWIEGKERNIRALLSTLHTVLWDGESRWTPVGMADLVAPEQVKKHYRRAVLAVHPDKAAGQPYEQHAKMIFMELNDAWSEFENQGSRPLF
Chain of RIPK2 (human) (O43353 whole entry, looked up): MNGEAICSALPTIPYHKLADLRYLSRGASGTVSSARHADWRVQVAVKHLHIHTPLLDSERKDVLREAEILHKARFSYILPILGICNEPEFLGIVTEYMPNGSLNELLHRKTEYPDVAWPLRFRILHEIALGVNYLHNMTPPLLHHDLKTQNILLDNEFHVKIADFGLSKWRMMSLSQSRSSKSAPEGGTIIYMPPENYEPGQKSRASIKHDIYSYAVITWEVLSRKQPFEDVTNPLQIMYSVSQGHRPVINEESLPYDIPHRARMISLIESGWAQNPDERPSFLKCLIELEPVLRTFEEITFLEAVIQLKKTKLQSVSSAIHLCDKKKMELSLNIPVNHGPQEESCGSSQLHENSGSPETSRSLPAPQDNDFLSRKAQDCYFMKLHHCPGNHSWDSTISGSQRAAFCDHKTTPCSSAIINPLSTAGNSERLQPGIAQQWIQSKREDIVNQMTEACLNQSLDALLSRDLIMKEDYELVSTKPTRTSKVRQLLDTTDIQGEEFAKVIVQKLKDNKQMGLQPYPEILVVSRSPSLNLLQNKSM
Chain of EPHB1 (human) (P54762 whole entry, looked up): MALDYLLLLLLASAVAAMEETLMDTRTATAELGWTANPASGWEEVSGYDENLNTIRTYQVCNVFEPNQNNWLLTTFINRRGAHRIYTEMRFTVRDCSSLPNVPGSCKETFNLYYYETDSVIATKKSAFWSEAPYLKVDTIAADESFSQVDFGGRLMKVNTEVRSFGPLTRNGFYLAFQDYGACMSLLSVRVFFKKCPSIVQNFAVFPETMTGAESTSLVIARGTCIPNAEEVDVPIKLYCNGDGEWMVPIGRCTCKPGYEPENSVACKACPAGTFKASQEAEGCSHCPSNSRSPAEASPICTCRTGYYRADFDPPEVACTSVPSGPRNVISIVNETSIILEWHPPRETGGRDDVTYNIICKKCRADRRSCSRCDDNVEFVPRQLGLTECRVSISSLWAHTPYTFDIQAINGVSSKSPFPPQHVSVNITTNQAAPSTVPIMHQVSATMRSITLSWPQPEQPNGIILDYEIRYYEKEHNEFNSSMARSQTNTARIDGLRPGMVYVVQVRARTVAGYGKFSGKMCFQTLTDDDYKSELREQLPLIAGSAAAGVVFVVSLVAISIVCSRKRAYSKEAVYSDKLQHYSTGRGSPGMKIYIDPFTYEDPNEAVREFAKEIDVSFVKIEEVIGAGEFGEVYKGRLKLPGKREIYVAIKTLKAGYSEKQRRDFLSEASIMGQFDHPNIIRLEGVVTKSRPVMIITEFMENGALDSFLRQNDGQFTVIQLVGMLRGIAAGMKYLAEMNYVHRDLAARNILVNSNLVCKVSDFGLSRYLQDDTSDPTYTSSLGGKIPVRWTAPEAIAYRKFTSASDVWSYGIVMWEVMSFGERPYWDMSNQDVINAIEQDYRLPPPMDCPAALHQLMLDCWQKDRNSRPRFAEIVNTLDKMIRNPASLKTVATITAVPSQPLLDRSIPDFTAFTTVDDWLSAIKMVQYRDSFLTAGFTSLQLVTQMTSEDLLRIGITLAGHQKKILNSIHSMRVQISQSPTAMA
Chain of TNNI3K (human) (Q59H18 whole entry, looked up): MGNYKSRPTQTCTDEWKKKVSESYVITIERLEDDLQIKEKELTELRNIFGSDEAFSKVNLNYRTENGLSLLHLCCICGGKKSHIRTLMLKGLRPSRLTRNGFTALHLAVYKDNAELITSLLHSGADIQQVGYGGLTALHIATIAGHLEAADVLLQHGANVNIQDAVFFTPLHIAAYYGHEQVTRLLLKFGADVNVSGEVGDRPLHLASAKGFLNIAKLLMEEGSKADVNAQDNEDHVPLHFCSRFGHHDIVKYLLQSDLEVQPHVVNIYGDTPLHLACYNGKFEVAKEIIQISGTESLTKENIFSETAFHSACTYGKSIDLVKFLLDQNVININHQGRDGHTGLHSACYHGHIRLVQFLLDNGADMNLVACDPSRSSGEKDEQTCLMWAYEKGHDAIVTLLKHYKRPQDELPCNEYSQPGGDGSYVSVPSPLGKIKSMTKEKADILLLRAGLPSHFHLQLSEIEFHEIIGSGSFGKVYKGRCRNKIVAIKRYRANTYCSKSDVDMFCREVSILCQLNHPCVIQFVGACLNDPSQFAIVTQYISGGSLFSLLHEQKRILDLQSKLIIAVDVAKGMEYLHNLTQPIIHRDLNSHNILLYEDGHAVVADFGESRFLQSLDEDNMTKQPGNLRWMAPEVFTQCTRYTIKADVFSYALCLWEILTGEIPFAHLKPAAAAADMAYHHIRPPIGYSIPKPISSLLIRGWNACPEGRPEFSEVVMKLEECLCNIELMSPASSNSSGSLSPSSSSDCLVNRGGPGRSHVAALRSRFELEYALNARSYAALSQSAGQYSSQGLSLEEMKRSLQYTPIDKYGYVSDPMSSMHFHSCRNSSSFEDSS
Chain of CLK3 (human) (P49761 whole entry, looked up): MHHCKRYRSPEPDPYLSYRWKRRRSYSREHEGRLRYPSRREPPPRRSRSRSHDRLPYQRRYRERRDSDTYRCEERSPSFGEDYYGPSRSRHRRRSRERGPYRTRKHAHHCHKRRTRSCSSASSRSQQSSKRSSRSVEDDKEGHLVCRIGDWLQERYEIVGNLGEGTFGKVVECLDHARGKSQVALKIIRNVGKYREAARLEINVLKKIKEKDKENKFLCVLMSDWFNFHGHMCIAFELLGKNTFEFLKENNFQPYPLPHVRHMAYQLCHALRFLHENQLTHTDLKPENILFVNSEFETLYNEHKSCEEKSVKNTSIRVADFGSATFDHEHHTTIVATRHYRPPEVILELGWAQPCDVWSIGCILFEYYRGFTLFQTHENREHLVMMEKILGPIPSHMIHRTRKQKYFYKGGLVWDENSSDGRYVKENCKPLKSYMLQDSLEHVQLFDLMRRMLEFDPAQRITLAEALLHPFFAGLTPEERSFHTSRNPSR
Chain of NEK2 (human) (P51955 whole entry, looked up): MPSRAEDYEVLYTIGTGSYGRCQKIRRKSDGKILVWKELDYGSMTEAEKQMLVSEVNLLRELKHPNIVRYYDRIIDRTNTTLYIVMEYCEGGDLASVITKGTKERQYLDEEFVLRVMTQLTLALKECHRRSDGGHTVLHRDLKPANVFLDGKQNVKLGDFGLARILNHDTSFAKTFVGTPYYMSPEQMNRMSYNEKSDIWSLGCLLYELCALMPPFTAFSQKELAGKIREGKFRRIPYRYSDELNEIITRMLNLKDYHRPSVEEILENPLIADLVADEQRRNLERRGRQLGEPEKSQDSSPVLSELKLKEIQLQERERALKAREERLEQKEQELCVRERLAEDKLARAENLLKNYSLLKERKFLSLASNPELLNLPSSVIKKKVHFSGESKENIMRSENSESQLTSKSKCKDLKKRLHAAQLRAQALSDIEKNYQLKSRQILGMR

Row | Structure (SMILES) | kinase still bound, per cent of control (PIM1 (human)) [%] | kinase still bound, per cent of control (FES (human)) [%] | kinase still bound, per cent of control (CDC42BPG (human)) [%] | kinase still bound, per cent of control (STK25 (human)) [%] | kinase still bound, per cent of control (ULK3 (human)) [%] | kinase still bound, per cent of control (CIT (human)) [%] | kinase still bound, per cent of control (RPS6KA6 KD2 (human)) [%] | kinase still bound, per cent of control (FLT4 (human)) [%] | kinase still bound, per cent of control (CDK3 (human)) [%] | kinase still bound, per cent of control (RPS6KA3 KD1 (human)) [%] | kinase still bound, per cent of control (CAMK4 (human)) [%] | kinase still bound, per cent of control (NEK6 (human)) [%] | kinase still bound, per cent of control (FGFR4 (human)) [%] | kinase still bound, per cent of control (RIPK2 (human)) [%] | kinase still bound, per cent of control (CAMK2B (human)) [%] | kinase still bound, per cent of control (CDKL2 (human)) [%] | kinase still bound, per cent of control (PRKACB (human)) [%] | kinase still bound, per cent of control (TSSK1B (human)) [%] | kinase still bound, per cent of control (RIPK4 (human)) [%] | kinase still bound, per cent of control (CLK2 (human)) [%] | further results
1 | Nc1ccc(-c2ccc3ncc4ccc(=O)n(-c5cccc(C(F)(F)F)c5)c4c3c2)cn1 | 92 | 100 | 86 | 56 | 100 | 100 | 70 | 85 | 100 | 80 | 100 | 92 | 100 | 54 | 100 | 91 | 85 | 100 | 100 | 15 | kinase still bound, per cent of control (TAOK1 (human)): 62%; kinase still bound, per cent of control (ULK2 (human)): 95%; kinase still bound, per cent of control (STK10 (human)): 100%; kinase still bound, per cent of control (SIK1 (human)): 79%; kinase still bound, per cent of control (GAK (human)): 56%; kinase still bound, per cent of control (LATS2 (human)): 100%; kinase still bound, per cent of control (EPHB1 (human)): 100%; kinase still bound, per cent of control (BMPR1A (human)): 100%; kinase still bound, per cent of control (CDC2L2 (human)): 98%; kinase still bound, per cent of control (MAPKAPK2 (human)): 100%; kinase still bound, per cent of control (CLK3 (human)): 71%; kinase still bound, per cent of control (TNNI3K (human)): 100%; kinase still bound, per cent of control (ADCK3 (human)): 88%; kinase still bound, per cent of control (NEK1 (human)): 87%; kinase still bound, per cent of control (TNIK (human)): 68%; kinase still bound, per cent of control (MAP4K2 (human)): 68%; kinase still bound, per cent of control (NEK2 (human)): 100%; kinase still bound, per cent of control (CHEK1 (human)): 86%; kinase still bound, per cent of control (CDK5 (human)): 92%
2 | CCC(=O)N1CCN(c2ccc(-n3c(=O)ccc4cnc5ccc(-c6cnc7ccccc7c6)cc5c43)cc2C(F)(F)F)CC1 | 80 | 41 | 1.6 | 84 | 100 | 59 | 86 | 74 | 100 | 38 | 90 | 99 | 21 | 44 | 100 | 58 | 100 | 100 | 100 | 65 | kinase still bound, per cent of control (TAOK1 (human)): 58%; kinase still bound, per cent of control (ULK2 (human)): 75%; kinase still bound, per cent of control (CSNK1E (human)): 59%; kinase still bound, per cent of control (STK10 (human)): 79%; kinase still bound, per cent of control (SIK1 (human)): 80%; kinase still bound, per cent of control (GAK (human)): 57%; kinase still bound, per cent of control (LATS2 (human)): 100%; kinase still bound, per cent of control (EPHB1 (human)): 100%; kinase still bound, per cent of control (BMPR1A (human)): 100%; kinase still bound, per cent of control (CDC2L2 (human)): 100%; kinase still bound, per cent of control (MAPKAPK2 (human)): 100%; kinase still bound, per cent of control (CLK3 (human)): 43%; kinase still bound, per cent of control (TNNI3K (human)): 66%; kinase still bound, per cent of control (ADCK3 (human)): 17%; kinase still bound, per cent of control (NEK1 (human)): 89%; kinase still bound, per cent of control (TNIK (human)): 39%; kinase still bound, per cent of control (MAP4K2 (human)): 35%; kinase still bound, per cent of control (NEK2 (human)): 90%; kinase still bound, per cent of control (CDK5 (human)): 100%
3 | OCCCNc1cc(-c2ccnc(Nc3cccc(Cl)c3)n2)ccn1 | 100 | 100 | 100 | 100 | 100 | 100 | 100 | 100 | 100 | 100 | 100 | 100 | 100 | 100 | 100 | 14 | 100 | 100 | 100 | 0.3 | kinase still bound, per cent of control (ULK2 (human)): 100%; kinase still bound, per cent of control (CSNK1E (human)): 100%; kinase still bound, per cent of control (STK10 (human)): 100%; kinase still bound, per cent of control (SIK1 (human)): 100%; kinase still bound, per cent of control (GAK (human)): 100%; kinase still bound, per cent of control (LATS2 (human)): 100%; kinase still bound, per cent of control (EPHB1 (human)): 100%; kinase still bound, per cent of control (BMPR1A (human)): 100%; kinase still bound, per cent of control (CDC2L2 (human)): 100%; kinase still bound, per cent of control (MAPKAPK2 (human)): 100%; kinase still bound, per cent of control (CLK3 (human)): 100%; kinase still bound, per cent of control (TNNI3K (human)): 100%; kinase still bound, per cent of control (ADCK3 (human)): 100%; kinase still bound, per cent of control (NEK1 (human)): 100%; kinase still bound, per cent of control (TNIK (human)): 100%; kinase still bound, per cent of control (MAP4K2 (human)): 100%; kinase still bound, per cent of control (NEK2 (human)): 100%; kinase still bound, per cent of control (CHEK1 (human)): 100%; kinase still bound, per cent of control (CDK5 (human)): 100%
4 | C[C@@H](Oc1cc(-n2cnc3ccc(CN4CCN(C)CC4)cc32)sc1C(N)=O)c1ccccc1C(F)(F)F | 3 | 88 | 100 | 83 | 100 | 87 | 73 | 63 | 100 | 0.5 | 100 | 95 | 100 | 92 | 19 | 90 | 89 | 19 | 52 | 69 | kinase still bound, per cent of control (TAOK1 (human)): 14%; kinase still bound, per cent of control (CSNK1E (human)): 100%; kinase still bound, per cent of control (STK10 (human)): 0%; kinase still bound, per cent of control (SIK1 (human)): 78%; kinase still bound, per cent of control (GAK (human)): 100%; kinase still bound, per cent of control (LATS2 (human)): 42%; kinase still bound, per cent of control (EPHB1 (human)): 99%; kinase still bound, per cent of control (BMPR1A (human)): 28%; kinase still bound, per cent of control (CDC2L2 (human)): 100%; kinase still bound, per cent of control (MAPKAPK2 (human)): 100%; kinase still bound, per cent of control (CLK3 (human)): 91%; kinase still bound, per cent of control (TNNI3K (human)): 92%; kinase still bound, per cent of control (ADCK3 (human)): 77%; kinase still bound, per cent of control (NEK1 (human)): 41%; kinase still bound, per cent of control (TNIK (human)): 78%; kinase still bound, per cent of control (MAP4K2 (human)): 24%; kinase still bound, per cent of control (NEK2 (human)): 2.4%; kinase still bound, per cent of control (CHEK1 (human)): 100%; kinase still bound, per cent of control (CDK5 (human)): 100%
